Laboratory results taken from patent US20260174757A1, “COMPOSITIONS AND METHODS FOR TREATING PULMONARY ARTERIAL HYPERTENSION” (Inhibikase Therapeutics, Inc., priority 2024, published 2026).
Where a name gives a salt, the structure may show the parent alone. Read-outs that look alike come from different tables or passages of the source.

Legend:
[1] = human, in vivo
Source text: Additionally, the clinical pharmacokinetics for each cohort of healthy subjects studied for the compound of formula (I) using the designs were summarized.

[2] = Comparative toxicology in non-human primate (NOAEL); conditions: cynomolgus macaque, in vivo; 28-day GLP toxicology study in cynomolgus macaques; read-out: No Adverse Effect Level (NOAEL)
Source text: The compound of formula (I) was originally developed to address on-dosing side effects of imatinib therapy. In particular, up to 50% of imatinib patients experience persistent Grade 2 or less gastrointestinal (GI) adverse events during treatment for blood or stomach cancers, and during the previous imatinib trials, up to ⅓ of participants experienced these GI events including 3% of participants experiencing SAEs due to GI disturbance. The compound of formula (I) was developed specifically to reduce these events with the expectations that improvement in other off-target or unintended side effects of this therapy could follow. To illustrate the potential of the compound of formula (I) to minimize GI disturbance, the compound was evaluated in comparative toxicology experiments in non-human primate (NHP).

[3] = steady state, Day 91, NOAEL 15 mg/kg, from NDA 21-335, cited from earlier work
[4] = imatinib mesylate in NHP, Q.D.; from NDA 21-335; cited from earlier work

In the case of `CCC(C)OC(=O)OC[N+]1(C)CCN(Cc2ccc(C(=O)Nc3ccc(C)c(Nc4nccc(-c5cccnc5)n4)c3)cc2)CC1` (stereo not shown) [IkT-001Pro], the “dose dependence of single dose Cmax and AUC0-inf” value [1] is reported as “increased linearly with dose”, the AUC0-last ([1]; 300 mg) is reported as 17820 ng·h/mL and the CL/F ([1]; 300 mg) is reported as 14.03 L/h. For the same compound, the Cmax ([1]; 300 mg) was 926.1 ng/mL, the Tmax ([1]; 300 mg) was 5.33 h and the Vz/F ([1]; 300 mg) was 331.4 L. For the same compound, the AUC0-last ([1]; 400 mg) was 30100 ng·h/mL, the CL/F ([1]; 400 mg) was 10.82 L/h and the Cmax ([1]; 400 mg) was 1563 ng/mL. For the same compound, the Tmax ([1]; 400 mg) was 5.75 h, the Vz/F ([1]; 400 mg) was 247.5 L and the AUC0-last ([1]; 500 mg) was 38440 ng·h/mL. For the same compound, the CL/F ([1]; 500 mg) was 11.29 L/h, the Cmax ([1]; 500 mg) was 1836 ng/mL and the Tmax ([1]; 500 mg) was 5.75 h. For the same compound, the Vz/F ([1]; 500 mg) was 303.8 L, the “AUC0-inf LSM (plasma imatinib)” value ([1]; 600 mg) was 41202.597 and the “AUC0-last LSM (plasma imatinib)” value ([1]; 600 mg) was 40456.384. The “Cmax LSM (plasma imatinib)” value ([1]; 600 mg) was 1939.51, the “AUC0-inf LSM” value ([1]; 800 mg) was 50840.298 and the AUC0-last ([1]; 800 mg) was 51430 ng·h/mL. The “AUC0-last LSM” value ([1]; 800 mg) was 50220.802, the CL/F ([1]; 800 mg) was 12.8 L/h and the Cmax ([1]; 800 mg) was 2467 ng/mL. For the same compound, the “Cmax LSM” value ([1]; 800 mg) was 2409.131, the Tmax ([1]; 800 mg) was 5.5 h and the Vz/F ([1]; 800 mg) was 272 L. For the same compound, the NOAEL at 28 day [2] was 75 mg/kg.

For `Cc1ccc(NC(=O)c2ccc(CN3CCN(C)CC3)cc2)cc1Nc1nccc(-c2cccnc2)n1` [Imatinib mesylate, imatinib mesylate], the “AUC0-last (mean)” value ([3]; female) is given as 1960 ng·h/mL, the “AUC0-last (mean)” value ([3]; male) is given as 1540 ng·h/mL and the “No Adverse Effect Level (NOAEL)” value [4] is given as 15 mg/kg.
